The source of these data is patent US20230338337A1, “BIOMARKERS FOR CANCER THERAPY USING MDM2 ANTAGONISTS” (OTSUKA PHARMACEUTICAL CO., LTD., priority 2019, published 2023).

As a reminder, the IC50 is the concentration needed to halve the response being measured. As usually defined, the inhibition is the relative decrease from the control value, in per cent. As a reminder, the pIC50 is the IC50 on a negative log10 scale, so that one unit is a factor of ten.

The subject of one assay is SJSA-1. The experiment in a line: Protocol B: CellTiter-Glo cell viability assay. (In ATP-based viability assays light output follows the ATP content of the culture.)
Assay [1] has as its system SJSA-1 (p53 wild-type, MDM2 amplified osteosarcoma). The experiment in a line: Protocol A: SRB growth inhibition assay. The following applies: read-out: SJSA-1 IC50 (μM) (Protocol A).
Assay [2] has as its target MDM2-p53 interaction (in vitro translated MDM2) (Homo sapiens (Human), UniProt Q00987). The assay is described as follows: MDM2-p53 interaction 96-well plate binding assay (ELISA). The settings on record: for MDM2 % inhibition at 0.0010: at 0.0010 μM; for pIC50: read-out: MDM2 IC50. For orientation: An ELISA detects its analyte on a solid surface through an enzyme-linked reagent.

The test system of another assay is SN40R2. The assay is described as follows: Protocol B: CellTiter-Glo cell viability assay. The settings on record: read-out: SN40R2 (Protocol B) % inhibition at 10, Protocol B.
[3] abbreviates: read-out: SJSA1 IC50 (μM) (Protocol B), Protocol B.

pIC50: −log10 of the molar value. Read-outs that look alike come from different tables or passages of the source.

MDM2-p53 interaction (in vitro translated MDM2), sequence (Q00987 whole entry): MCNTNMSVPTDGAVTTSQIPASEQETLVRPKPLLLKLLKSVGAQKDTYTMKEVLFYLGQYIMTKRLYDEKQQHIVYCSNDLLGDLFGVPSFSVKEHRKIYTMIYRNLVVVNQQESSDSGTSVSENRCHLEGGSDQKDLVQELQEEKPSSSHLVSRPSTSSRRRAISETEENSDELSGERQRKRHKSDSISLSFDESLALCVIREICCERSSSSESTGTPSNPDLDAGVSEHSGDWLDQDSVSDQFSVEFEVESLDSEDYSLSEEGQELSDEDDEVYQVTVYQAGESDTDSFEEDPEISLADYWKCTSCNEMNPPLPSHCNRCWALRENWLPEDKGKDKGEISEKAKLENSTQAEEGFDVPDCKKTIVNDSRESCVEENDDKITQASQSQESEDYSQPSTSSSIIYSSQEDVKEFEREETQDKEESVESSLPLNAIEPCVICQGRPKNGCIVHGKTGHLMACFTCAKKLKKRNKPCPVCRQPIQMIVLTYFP

Regarding “(3R)-3-(4-chlorophenyl)-2-[(4-chlorophenyl)methyl]-4-fluoro-3-{[1-(hydroxymethyl)cyclopropyl]methoxy}-6-(2-hydroxypropan-2-yl)-2,3-dihydro-1H-isoindol-1-one [Example 2]”, the IC50 with SJSA-1 (setting [3]) is 3.4 µM; in assay [1], 1.7 µM.

Turning to “(3R)-3-(4-chlorophenyl)-2-[(5-chloropyrimidin-2-yl)methyl]-4-fluoro-6-[(1S)-1-hydroxy-1-(1-methylpiperidin-4-yl)propyl]-3-{[1-(hydroxymethyl)cyclopropyl]methoxy}-2,3-dihydro-1H-isoindol-1-one [Example 556]”, the “MDM2 % inhibition at 0.0010” value in assay [2] came out at 91%@0.0010. Also, the half-maximal inhibitory concentration (IC50) in the assay with SJSA-1 (setting [3]) was 0.0064 µM; in assay [1], 0.056 µM.

Turning to “1-({[(1R)-1-(4-chlorophenyl)-2-[(5-chloropyrimidin-2-yl)methyl]-7-fluoro-5-[1-hydroxy-1-(1-methyl-1H-imidazol-4-yl)propyl]-3-oxo-2,3-dihydro-1H-isoindol-1-yl]oxy}methyl)cyclopropane-1-carboxamide [Example 486]”, the “MDM2 % inhibition at 0.0010” value in assay [2] was 59%@0.0010. Besides, the IC50 amounted to 0.051 µM in the assay with SJSA-1 (setting [3]) and 0.075 µM in assay [1].

With “(3R)-3-(4-chlorophenyl)-2-[(5-chloropyridin-2-yl)methyl]-4-fluoro-6-[1-(4-fluoropiperidin-4-yl)-1-hydroxypropyl]-3-[(3S)-oxolan-3-yloxy]-2,3-dihydro-1H-isoindol-1-one [Example 548]”, in assay [2], the “MDM2 % inhibition at 0.0010” value is reported as 82%@0.0010. Besides, the IC50 in the assay on SJSA-1 (setting [3]) was determined as 0.17 µM; in assay [1], 0.14 µM.

Turning to “(3R)-3-(4-chlorophenyl)-2-[(5-chloropyrimidin-2-yl)methyl]-4-fluoro-3-[(3-fluorooxetan-3-yl)methoxy]-6-[1-hydroxy-1-(1-methylpiperidin-4-yl)ethyl]-2,3-dihydro-1H-isoindol-1-one [Example 558]”, in assay [2] (at 0.0030 μM), the “MDM2 % inhibition at 0.0030” value amounted to 53%@0.0030. Moreover, the IC50 in the assay with SJSA-1 (setting [3]) stood at 0.082 µM; in assay [1] it was 0.22 µM.

Turning to “1-({[(1R)-1-(4-chlorophenyl)-2-[(5-chloropyridin-2-yl)methyl]-7-fluoro-5-{1-hydroxy-1-[1-(2-hydroxyethyl)piperidin-4-yl]ethyl}-3-oxo-2,3-dihydro-1H-isoindol-1-yl]oxy}methyl)cyclopropane-1-carbonitrile [Example 420]”, the “MDM2 % at concentration” value in assay [2] stood at 68%@0.0010. The IC50 in the assay with SJSA-1 (setting [3]) was 0.87 µM; in assay [1], 0.49 µM.

With “6-{[(1R)-1-(4-chlorophenyl)-7-fluoro-5-{1-hydroxy-1-[trans-4-hydroxycyclohexyl]propyl}-3-oxo-1-[cis-3-hydroxycyclobutoxy]-2,3-dihydro-1H-isoindol-2-yl]methyl}pyridine-3-carbonitrile [Example 518]”, the “MDM2 % inhibition at 0.0010” value in assay [2] came to 79%@0.0010. Moreover, the IC50 with SJSA-1 (setting [3]) was found to be 0.065 µM; in assay [1], 0.058 µM.

For “2-{[(1R)-1-(4-chlorophenyl)-7-fluoro-5-[1-(4-fluoro-1-methylpiperidin-4-yl)-1-hydroxypropyl]-3-oxo-1-[(3S)-oxolan-3-yloxy]-2,3-dihydro-1H-isoindol-2-yl]methyl}pyrimidine-5-carbonitrile [Example 561]”, the “MDM2 % inhibition at 0.0010” value in assay [2] is on record as 47%@0.0010. Moreover, the half-maximal inhibitory concentration (IC50) was determined as 0.065 µM with SJSA-1 (setting [3]) and 0.021 µM in assay [1].

For “2-{[(1R)-1-(4-chlorophenyl)-7-fluoro-5-{1-hydroxy-1-[trans-4-hydroxycyclohexyl]propyl}-1-(2-hydroxyethoxy)-3-oxo-2,3-dihydro-1H-isoindol-2-yl]methyl}pyrimidine-5-carbonitrile [Example 510]”, the “MDM2 % inhibition at 0.0010” value in assay [2] is 79%@0.0010. In addition, the IC50 turned out to be 0.073 µM in the assay with SJSA-1 (setting [3]) and 0.084 µM in assay [1].

Turning to `CCC(O)(c1cc(F)c2c(c1)C(=O)N(Cc1ccc(C#N)cn1)[C@@]2(OCC1(F)COC1)c1ccc(Cl)cc1)c1cn(C)cn1` (stereo partly drawn) [Example 435, 6-{[(1R)-1-(4-chlorophenyl)-7-fluoro-1-[(3-fluorooxetan-3-yl)methoxy]-5-[1-hydroxy-1-(1-methyl-1H-imidazol-4-yl)propyl]-3-oxo-2,3-dihydro-1H-isoindol-2-yl]methyl}pyridine-3-carbonitrile], the IC50 in the assay on SJSA-1 (Homo sapiens, SJSA-1, read-out: SJSA1 IC50 (μM) (Protocol B), Protocol B) was 0.015 µM. Also, the inhibition at 10 µM with SN40R2 stood at 0%.

For the compound `CC(O)(c1cc(F)c2c(c1)C(=O)N(Cc1ncc(Cl)cn1)[C@@]2(OCC1(CO)CC1)c1ccc(Cl)cc1)[C@H]1CC[C@H](O)CC1` (stereo partly drawn) [Example 401, (3R)-3-(4-chlorophenyl)-2-[(5-chloropyrimidin-2-yl)methyl]-4-fluoro-6-{1-hydroxy-1-[trans-4-hydroxycyclohexyl]ethyl}-3-{[1-(hydroxymethyl)cyclopropyl]methoxy}-2,3-dihydro-1H-isoindol-1-one], in the assay with SJSA-1 (setting [3]), the half-inhibitory concentration (IC50) was 0.0098 µM. Also, the inhibition at 10 µM in the assay on SN40R2 stood at 6%.

`CCC(O)(c1cc(F)c2c(c1)C(=O)N(Cc1ccc(C#N)cn1)[C@@]2(O[C@H]1CCOC1)c1ccc(Cl)cc1)C1(F)CCOCC1` (stereo partly drawn) [Example 445, 6-{[(1R)-1-(4-chlorophenyl)-7-fluoro-5-[1-(4-fluorooxan-4-yl)-1-hydroxypropyl]-3-oxo-1-[(3S)-oxolan-3-yloxy]-2,3-dihydro-1H-isoindol-2-yl]methyl}pyridine-3-carbonitrile]: in the assay on SN40R2, the inhibition at 10 µM was 16%.

As to “(3R)-3-(4-chlorophenyl)-2-[(5-chloropyrimidin-2-yl)methyl]-4-fluoro-6-[1-hydroxy-1-(1-methyl-1H-imidazol-4-yl)propyl]-3-{[1-(hydroxymethyl)cyclopropyl]methoxy}-2,3-dihydro-1H-isoindol-1-one [Example 477]”, the “MDM2 % inhibition at 0.0010” value in assay [2] is listed as 86%@0.0010. Moreover, the values for the IC50 (in the assay with SJSA-1 (setting [3]); in assay [1]) were 0.0091 µM and 0.013 µM, respectively.

On to “2-{[(1R)-1-(4-chlorophenyl)-1-[(1-cyanocyclopropyl)methoxy]-7-fluoro-5-[1-hydroxy-1-(1-methyl-1H-imidazol-4-yl)propyl]-3-oxo-2,3-dihydro-1H-isoindol-2-yl]methyl}pyrimidine-5-carbonitrile [Example 462]”, for which the “MDM2 % inhibition at 0.0010” value in assay [2] is reported as 80%@0.0010. Moreover, the IC50 in the assay on SJSA-1 (setting [3]) amounted to 0.047 µM; in assay [1], 0.073 µM.

Take “(3R)-3-(4-chlorophenyl)-2-[(5-chloropyrimidin-2-yl)methyl]-4-fluoro-6-[1-hydroxy-1-(1-methylpiperidin-4-yl)ethyl]-3-{[1-(hydroxymethyl)cyclopropyl]methoxy}-2,3-dihydro-1H-isoindol-1-one [Example 554]”: the “MDM2 % inhibition at 0.0010” value in assay [2] stood at 74%@0.0010. The half-inhibitory concentration (IC50) in the assay on SJSA-1 (setting [3]) was 0.07 µM; in assay [1], 0.21 µM.

For “2-{[(1R)-1-(4-chlorophenyl)-7-fluoro-5-[1-(4-fluoro-1-methylpiperidin-4-yl)-1-hydroxypropyl]-1-methoxy-3-oxo-2,3-dihydro-1H-isoindol-2-yl]methyl}pyrimidine-5-carbonitrile [Example 575]”, in assay [2], the “MDM2 % inhibition at 0.0010” value is on record as 38%@0.0010. Also, the figures for the IC50 (with SJSA-1 (setting [3]); in assay [1]) were 0.066 µM and 0.028 µM, respectively.

Regarding “2-{[(1R)-1-(4-chlorophenyl)-7-fluoro-1-({1-[hydroxydideuteromethyl]cyclopropyl}dideuteromethoxy)-5-(2-hydroxypropan-2-yl)-3-oxo-2,3-dihydro-1H-isoindol-2-yl]methyl}pyrimidine-5-carbonitrile [Example 513]”, the negative logarithm of the IC50 (pIC50) in assay [2] is 8.51. Further, the results for the IC50 (in the assay with SJSA-1 (setting [3]); in assay [1]) were 0.38 µM and 0.26 µM, respectively.

Regarding “(3R)-3-(4-chlorophenyl)-2-[(5-chloropyrimidin-2-yl)methyl]-4-fluoro-6-[1-[4-fluoro-1-(oxetan-3-yl)piperidin-4-yl]-1-hydroxypropyl]-3-methoxy-2,3-dihydro-1H-isoindol-1-one [Example 552]”, the “MDM2 % inhibition at 0.0010” value in assay [2] came to 79%@0.0010. Also, the IC50 came to 0.02 µM with SJSA-1 (setting [3]) and 0.028 µM in assay [1].

“(3R)-3-(4-chlorophenyl)-2-[(5-chloropyrimidin-2-yl)methyl]-4-fluoro-6-[1-(4-fluoropiperidin-4-yl)-1-hydroxypropyl]-3-[(3S)-oxolan-3-yloxy]-2,3-dihydro-1H-isoindol-1-one [Example 541]”: the “MDM2 % inhibition at 0.00030” value in assay [2] (at 0.00030 μM) stood at 64%@0.0003. Also, in assay [1], the half-inhibitory concentration (IC50) was 0.19 µM.

In the case of “5-{[(1R)-1-(4-chlorophenyl)-7-fluoro-5-[1-hydroxy-1-(1-methyl-1H-imidazol-4-yl)propyl]-3-oxo-1-[(3S)-oxolan-3-yloxy]-2,3-dihydro-1H-isoindol-2-yl]methyl}pyridine-2-carbonitrile [Example 431]”, the “MDM2 % inhibition at 0.0010” value in assay [2] was 48%@0.0010. Also, the 50% inhibitory concentration (IC50) in assay [1] came out at 0.11 µM.

For the compound “1-({[(1R)-1-(4-chlorophenyl)-2-[(4-chlorophenyl)methyl]-5-(2-hydroxypropan-2-yl)-3-oxo-2,3-dihydro-1H-isoindol-1-yl]oxy}methyl)cyclopropane-1-carboxylic acid [Example 5]”, the pIC50 in assay [2] is 8.42. The IC50 in assay [1] came out at 0.2 µM.

Consider “(3R)-3-(4-chlorophenyl)-2-[(5-chloropyrimidin-2-yl)methyl]-4-fluoro-6-[1-(4-fluoro-1-methylpiperidin-4-yl)-1-hydroxypropyl]-3-[(3S)-oxolan-3-yloxy]-2,3-dihydro-1H-isoindol-1-one [Example 571]”, for which, in assay [2], the “MDM2 % inhibition at 0.0010” value worked out at 77%@0.0010. The 50% inhibitory concentration (IC50) with SJSA-1 (setting [3]) was found to be 0.0085 µM; in assay [1], 0.023 µM.
